Assays:
[1] = molecular target: T1, GST-tagged PARP6 (recombinant) (Homo sapiens, UniProt Q2NL67); experiment: competition of PARPYnD photoaffinity labeling, in-gel fluorescence and immunoblot; format: biochemical; conditions: recombinant GST-PARP6 spiked into MDA-MB-468 lysate; […] nm UV
T1 construct: recombinant GST fusion with HRV3C site in the linker, 98 kDa; intact PARP6 71 kDa after cleavage

PARP1 (recombinant) = molecular target: T2, PARP1 (recombinant) (Homo sapiens, UniProt P09874); experiment: fluorescence polarization competition binding
T2 construct: recombinant

[2] = molecular target: T1, GST-tagged PARP6 (recombinant); experiment: fluorescence polarization competition binding
Description: fluorescence polarization competition binding on GST-tagged PARP6 (recombinant) | IC50 of PARPYnD for PARP6 as determined by the in vitro binding assay

PARP2 (recombinant) = molecular target: T3, PARP2 (recombinant) (Homo sapiens, UniProt Q9UGN5); experiment: fluorescence polarization competition binding
T3 construct: recombinant
T3 sequence (Q9UGN5 whole entry): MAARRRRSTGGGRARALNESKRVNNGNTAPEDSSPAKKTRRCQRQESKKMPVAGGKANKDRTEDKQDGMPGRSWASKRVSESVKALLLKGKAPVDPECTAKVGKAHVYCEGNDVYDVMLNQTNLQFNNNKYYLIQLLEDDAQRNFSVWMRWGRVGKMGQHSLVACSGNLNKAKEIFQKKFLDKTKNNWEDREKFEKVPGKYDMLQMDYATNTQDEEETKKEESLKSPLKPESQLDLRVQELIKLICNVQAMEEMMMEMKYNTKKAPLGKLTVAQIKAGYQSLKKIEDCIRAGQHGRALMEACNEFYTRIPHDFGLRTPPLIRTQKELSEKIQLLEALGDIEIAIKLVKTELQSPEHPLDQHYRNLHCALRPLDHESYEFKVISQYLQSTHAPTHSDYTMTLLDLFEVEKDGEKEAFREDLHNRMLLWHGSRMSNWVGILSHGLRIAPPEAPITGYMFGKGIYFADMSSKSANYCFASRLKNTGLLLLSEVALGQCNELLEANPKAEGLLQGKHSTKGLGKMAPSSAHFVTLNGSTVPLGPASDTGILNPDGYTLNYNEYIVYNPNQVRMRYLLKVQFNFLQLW

T1 sequence (Q2NL67 whole entry, the tested form may be a part): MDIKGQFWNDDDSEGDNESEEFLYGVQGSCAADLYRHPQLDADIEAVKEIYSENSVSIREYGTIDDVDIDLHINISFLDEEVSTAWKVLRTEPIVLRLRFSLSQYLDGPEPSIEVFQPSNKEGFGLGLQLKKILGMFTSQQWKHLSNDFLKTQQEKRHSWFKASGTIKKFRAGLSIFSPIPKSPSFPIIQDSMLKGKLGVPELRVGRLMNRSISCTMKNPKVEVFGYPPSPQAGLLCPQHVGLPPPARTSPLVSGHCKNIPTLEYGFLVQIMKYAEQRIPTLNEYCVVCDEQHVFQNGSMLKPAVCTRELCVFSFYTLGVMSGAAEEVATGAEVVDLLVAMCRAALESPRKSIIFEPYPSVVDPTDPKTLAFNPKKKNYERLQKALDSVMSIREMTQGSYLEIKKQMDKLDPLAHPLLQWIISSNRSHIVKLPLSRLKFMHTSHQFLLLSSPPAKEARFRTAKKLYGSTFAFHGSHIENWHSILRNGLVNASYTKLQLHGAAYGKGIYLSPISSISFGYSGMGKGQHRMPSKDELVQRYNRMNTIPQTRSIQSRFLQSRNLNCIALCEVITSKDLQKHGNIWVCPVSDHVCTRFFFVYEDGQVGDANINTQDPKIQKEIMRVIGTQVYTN
T2 sequence (P09874 2-1014): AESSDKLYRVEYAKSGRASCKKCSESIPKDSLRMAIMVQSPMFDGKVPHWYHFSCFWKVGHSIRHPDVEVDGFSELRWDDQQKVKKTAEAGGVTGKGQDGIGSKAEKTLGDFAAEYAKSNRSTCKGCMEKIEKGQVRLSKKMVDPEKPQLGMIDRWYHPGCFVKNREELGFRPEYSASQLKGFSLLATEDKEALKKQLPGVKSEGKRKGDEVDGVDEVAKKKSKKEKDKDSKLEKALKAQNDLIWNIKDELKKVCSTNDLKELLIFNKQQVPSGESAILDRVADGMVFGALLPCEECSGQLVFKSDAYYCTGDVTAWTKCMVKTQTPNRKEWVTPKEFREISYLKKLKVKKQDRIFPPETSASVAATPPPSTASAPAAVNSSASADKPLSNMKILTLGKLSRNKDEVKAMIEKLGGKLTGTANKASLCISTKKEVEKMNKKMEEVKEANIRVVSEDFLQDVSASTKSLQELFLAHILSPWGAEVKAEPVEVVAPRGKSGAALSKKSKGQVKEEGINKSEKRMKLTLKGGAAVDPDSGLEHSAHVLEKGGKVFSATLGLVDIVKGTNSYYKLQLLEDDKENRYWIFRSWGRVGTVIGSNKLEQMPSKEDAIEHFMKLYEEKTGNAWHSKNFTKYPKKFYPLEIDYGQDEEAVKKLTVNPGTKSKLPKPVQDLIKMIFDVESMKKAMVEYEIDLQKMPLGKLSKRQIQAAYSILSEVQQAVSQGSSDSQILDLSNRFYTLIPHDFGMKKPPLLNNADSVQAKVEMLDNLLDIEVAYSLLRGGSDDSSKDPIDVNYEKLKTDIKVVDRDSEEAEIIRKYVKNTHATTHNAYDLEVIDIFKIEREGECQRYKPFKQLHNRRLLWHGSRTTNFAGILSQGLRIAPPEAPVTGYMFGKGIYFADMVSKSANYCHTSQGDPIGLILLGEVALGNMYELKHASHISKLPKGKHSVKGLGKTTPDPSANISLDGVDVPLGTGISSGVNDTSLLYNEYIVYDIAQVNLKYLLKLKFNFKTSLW

SMILES | competition of PARPYnD photoaffinity labeling, in-gel fluorescence and immunoblo [1] | IC50 (PARP1 (recombinant)) | IC50 [2] | IC50 (PARP2 (recombinant))
C[C@H]1Cn2c(nnc2C(C)(F)F)CN1C(=O)c1cccc(C(F)(F)c2n[nH]c(=O)c3ccccc23)c1 [AZ0108] | which was depleted by PARP6 inhibitor AZ0108 | – | – | –
C#CCCC1(CCC(=O)Nc2cnc(N3CCN(C(=O)c4cccc(Cc5n[nH]c(=O)c6ccccc56)c4)CC3)c(C#N)c2)N=N1 [PARPYnD] | – | 38 nM | 230 nM | 6 nM

Source: publication PMC7146755, “Structure-Guided Design and In-Cell Target Profiling of a Cell-Active Target Engagement Probe for PARP Inhibitors” (ACS Chemical Biology, 2020)
